Data reported in ChEMBL document CHEMBL1649146, “Contribution of the autolysin AtlA to the bactericidal activity of amoxicillin against Enterococcus faecalis JH2-2” (2009).
≈ marks a conversion by molar mass, not a printed value. Calls of active or inactive are those of the source. The calls are words filed in the database; no cut-off is given here.

Legend:
Enterococcus faecalis [1] = assay: Antibacterial activity against atlA-deficient Enterococcus faecalis JH2-2 assessed as decrease in bacterial count at 2 ug/ml by macrodilution method; format: functional; design: scale not given: the % may be the effect or the level left
Enterococcus faecalis [2] = assay: Antibacterial activity against Enterococcus faecalis JH2-2 assessed as bacterial killing at 2 ug/ml by macrodilution method; format: functional, organism-based
Enterococcus faecalis [3] = assay: Antibacterial activity against atlA-deficient Enterococcus faecalis JH2-2 assessed as bacterial killing at 2 ug/ml by macrodilution method; format: functional, organism-based
Enterococcus faecalis [4] = assay: Antibacterial activity against Enterococcus faecalis JH2-2 assessed as decrease in decrease in bacterial count at 2 ug/ml after 3 hrs by macrodilution method; format: functional
Enterococcus faecalis [5] = assay: Antibacterial activity against Enterococcus faecalis JH2-2 assessed as decrease in decrease in bacterial count at 2 ug/ml after 6 hrs by macrodilution method; format: functional
Enterococcus faecalis [6] = assay: Antibacterial activity against Enterococcus faecalis JH2-2 assessed as decrease in decrease in bacterial count at 2 ug/ml after 24 hrs by macrodilution method; format: functional
Enterococcus faecalis [7] = assay: Antibacterial activity against atlA-deficient Enterococcus faecalis JH2-2 assessed as decrease in decrease in bacterial count at 2 ug/ml after 3 hrs by macrodilution method; format: functional
Enterococcus faecalis [8] = assay: Antibacterial activity against atlA-deficient Enterococcus faecalis JH2-2 assessed as decrease in decrease in bacterial count at 2 ug/ml after 6 hrs by macrodilution method; format: functional
Enterococcus faecalis [9] = assay: Antibacterial activity against atlA-deficient Enterococcus faecalis JH2-2 assessed as decrease in decrease in bacterial count at 2 ug/ml after 24 hrs by macrodilution method; format: functional
Enterococcus faecalis [10] = assay: Antibacterial activity against Enterococcus faecalis JH2-2 infected in New Zealand White rabbit assessed as bacterial count per gram vegetation at 50 mg/kg, im TID for 3 days administered 48 hrs post bacterial challenge (reference value: 9.40+/-0.62 log10 CFU/g); format: functional; conditions: route intramuscular
Enterococcus faecalis [11] = assay: Antibacterial activity against atlA-deficient Enterococcus faecalis JH2-2 infected in New Zealand White rabbit assessed as bacterial count per gram vegetation at 50 mg/kg, im TID for 3 days administered 48 hrs post bacterial challenge (reference value: 8.34+/-1.66 log10 CFU/g); format: functional; conditions: route intramuscular
Enterococcus faecalis [12] = assay: Ratio of MBC to MIC in Enterococcus faecalis JH2-2; format: functional
Enterococcus faecalis [13] = assay: Ratio of MBC to MIC in atlA-deficient Enterococcus faecalis JH2-2; format: functional
Enterococcus faecalis [14] = assay: Antibacterial activity against Enterococcus faecalis JH2-2 by macrodilution method; format: functional
Enterococcus faecalis [15] = assay: Antibacterial activity against atlA-deficient Enterococcus faecalis JH2-2 by macrodilution method; format: functional

CC1(C)S[C@@H]2[C@H](NC(=O)[C@H](N)c3ccc(O)cc3)C(=O)N2[C@H]1C(=O)O [AMOXICILLIN] was tested, and the Activity (Enterococcus faecalis [1]) was “>=99.9%”, the Activity (Enterococcus faecalis [2]) was “Active” and the Activity (Enterococcus faecalis [3]) was “Active”. The log10CFU/ml (Enterococcus faecalis [4]) was 2.57, the log10CFU/ml (Enterococcus faecalis [5]) was 5.59 and the log10CFU/ml (Enterococcus faecalis [6]) was 7.82. The log10CFU/ml (Enterococcus faecalis [7]) was 1.5, the log10CFU/ml (Enterococcus faecalis [8]) was 3.93 and the log10CFU/ml (Enterococcus faecalis [9]) was 6.46. The log10CFU/g (Enterococcus faecalis [10]) was 7.69, the log10CFU/g (Enterococcus faecalis [11]) was 8.55 and the Ratio (Enterococcus faecalis [12]) was 4. For the same compound, the Ratio (Enterococcus faecalis [13]) was “>=32”, the MBC (Enterococcus faecalis [14]) was 2 µg/mL (≈ 5.47 µM) and the MIC (Enterococcus faecalis [14]) was 0.5 µg/mL (≈ 1.37 µM). For the same compound, the MBC (Enterococcus faecalis [15]) was greater than 1020 µg/mL and the MIC (Enterococcus faecalis [15]) was 1 µg/mL (≈ 2.74 µM).
